# Reference: patent US7371811B2, “Schizophrenia associated genes, proteins and biallelic markers” (Serono Genetics Institute S.A., priority 1998, dated 2008)
# System: Male C57BL6 adult mice
# Assay: Effect of sbg1 peptide on behavior of mice (locomotor and stereotypy movements)
# Assay type: in vivo
# Conditions: 50 μg peptide intraperitoneally in 200 μl saline, n=4/peptide, FIG. 18
# Procedure: In one example, the present inventors have tested sbg1 peptides by injection into mice. An sbg1 peptide comprising amino acid positions 124 to 153 of SEQ ID No 34 was injected peritoneally into adult mice as described herein in Example 7. […] Because the onset of stereotypy was variable, data are presented as the average of stereotypy for observations over the entire time period.
# Animals: Male C57BL6 adult mice (approximately 6 weeks old)
# Peptides: sbg1 peptide: • NH2-[…]-COOH (SEQ ID NO:232) • Control 1: NH2-[…]-COOH (SEQ ID NO:233) • Control 2: NH2-MHMKTILGPRLGLGE-COOH (SEQ ID NO:234)
# Protocol: • 1. Inject mice intraperitoneally with 50 μg peptide in 200 μl sterile physiological saline (n=4/peptide). • 2. Place mice in clean empty cages containing no litter, and only a small test tube rack. The cages are covered with a plastic sheet to enable taking photographs and video-tracking. • 3. Observe behavior for one minute from t=5 min up to t=45 min, as indicated. Any locomoter or stereotypy movements were recorded as positive over 1 min intervals. Locomoter movements include climbing, and rearing while stereotypy movements include grooming and scratching. At the end of the experiment, the number of movements were added up for each animal.
# Results: • 1. […]
substance,measurement,setting,value
NH2-QPLERMWTCNYNQQKDQSCNHKEITSTKAE-COOH (H-QPLERMWTCNYNQQKDQSCNHKEITSTKAE-OH; cysteine pairing not given here; listed as Homo sapiens) [sbg1 peptide],frequency of movements (locomotor activity) over the time course of the experiment,"average movements at 5, 10, 15 min compared with 30, 35, 40, 45 min",decrease in the frequency of their movements
same,stereotypy (grooming and scratching movements),"observed t=5 to 45 min, effect most prominent during the last period",increased stereotypy
